This passage reports TGI results from PubChem BioAssay (NCI).

Some test systems named below: UACC-62 melanoma; HT29 colon; M14 melanoma; NCI-H23 lung; SK-MEL-28 melanoma; MCF7 breast; A498 renal; SNB-75 CNS; SR leukemia; U251 CNS; NCI-H226 lung; LOX IMVI melanoma; HCC-2998 colon; HL-60(TB) leukemia; SN12C renal; MDA-MB-231 breast; PC-3 prostate; T-47D breast; SK-MEL-2 melanoma; SF-539 CNS.
Holding throughout (test): growth of human tumour cells (NCI), 48 h

Each structure is given as a SMILES string.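 Protocol summary: plate cells (96-well), add compound at 5 concentrations, incubate 48 h, interpolate endpoints linearly. TGI: concentration producing complete growth inhibition.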

`COc1ccc(/C(CC2OC(=O)c3ccccc32)=N\NC(=O)C[N+](C)(C)C)cc1` (stereo not given): the TGI with UACC-62 melanoma was 40.1 µM; in the assay with HT29 colon, 40.9 µM; in the assay with M14 melanoma it was greater than 100 µM; with NCI-H23 lung it was 47.7 µM; in the assay on SK-MEL-28 melanoma, 55.5 µM; in the assay on MCF7 breast, greater than 100 µM. In addition, the TGI with A498 renal was found to be 60.1 µM; in the assay on SNB-75 CNS, 75.6 µM; in the assay on SR leukemia, 45.4 µM; in the assay on U251 CNS it was 36.3 µM; with NCI-H226 lung it was 62.6 µM; in the assay on LOX IMVI melanoma, 65.9 µM. Moreover, the TGI was 30.9 µM in the assay with HCC-2998 colon; greater than 100 µM in the assay on HL-60(TB) leukemia; greater than 100 µM with SN12C renal; greater than 100 µM in the assay with MDA-MB-231 breast; greater than 100 µM in the assay on PC-3 prostate; greater than 100 µM in the assay with T-47D breast. Moreover, the TGI in the assay on SK-MEL-2 melanoma is 94.2 µM; with SF-539 CNS, greater than 100 µM.

In the case of `Cc1nc(C(N)=S)sc1C(=O)CC(=O)C(=O)Nc1nc2ccccc2[nH]1`, the TGI in the assay on UACC-62 melanoma, with HT29 colon, in the assay with M14 melanoma, in the assay on NCI-H23 lung, with SK-MEL-28 melanoma and with MCF7 breast was greater than 100 µM throughout. Further, the TGI in the assay on A498 renal, in the assay on SNB-75 CNS, in the assay on SR leukemia, with U251 CNS, with NCI-H226 lung and with LOX IMVI melanoma was greater than 100 µM each time. Besides, the TGI in the assay on HCC-2998 colon, with HL-60(TB) leukemia, with SN12C renal, with MDA-MB-231 breast, with PC-3 prostate and in the assay with T-47D breast was greater than 100 µM in each case. Besides, the TGI with SK-MEL-2 melanoma and in the assay on SF-539 CNS was greater than 100 µM throughout.

Consider `CN(C)/C=N/NC(=O)/C(C#N)=C/N(C)C`, for which the TGI in the assay with UACC-62 melanoma, with HT29 colon, in the assay with M14 melanoma, in the assay with NCI-H23 lung, in the assay with SK-MEL-28 melanoma and in the assay on MCF7 breast was greater than 100 µM in each case. Also, the TGI in the assay on A498 renal, in the assay on SNB-75 CNS, in the assay on SR leukemia, with U251 CNS, in the assay with NCI-H226 lung and with LOX IMVI melanoma was greater than 100 µM in each case. Moreover, the TGI in the assay with HCC-2998 colon, in the assay with HL-60(TB) leukemia, in the assay on SN12C renal, in the assay with MDA-MB-231 breast, with PC-3 prostate and with T-47D breast was greater than 100 µM each time. For the same compound, the TGI in the assay on SK-MEL-2 melanoma and with SF-539 CNS was greater than 100 µM throughout.

`COC(=O)/C=C(\S/C(=N\n1cc(C(=O)OC)c(C(=O)OC)c1-c1ccc(C)cc1)c1ccc(C)cc1)C(=O)OC`: the TGI was 25.9 µM in the assay on UACC-62 melanoma; 9.67 µM with HT29 colon; 11 µM in the assay on M14 melanoma; 11.5 µM with NCI-H23 lung; 12.5 µM in the assay on SK-MEL-28 melanoma; 23.7 µM in the assay with MCF7 breast. Also, the TGI in the assay on A498 renal turned out to be 30 µM; in the assay on SNB-75 CNS, 31.4 µM; in the assay on SR leukemia it was 67.3 µM; in the assay on U251 CNS it was 14.1 µM; with NCI-H226 lung it was 3.5 µM; in the assay on LOX IMVI melanoma, 17 µM. For the same compound, the TGI is 34 µM in the assay with HCC-2998 colon; 14.7 µM in the assay with HL-60(TB) leukemia; 11.8 µM in the assay on SN12C renal; 11.7 µM with MDA-MB-231 breast; 10.3 µM in the assay with PC-3 prostate; greater than 100 µM in the assay with T-47D breast. The figures for the TGI in the assay on SK-MEL-2 melanoma and with SF-539 CNS were 15 µM and 33 µM, respectively.

Consider `Cc1nc2c(o1)C(=O)c1ccccc1C2=Nc1ccc(N2CCOCC2)cc1`, for which the TGI in the assay with UACC-62 melanoma is 3.73 µM; in the assay with HT29 colon it was 60.9 µM; in the assay on M14 melanoma it was 3.27 µM; in the assay with NCI-H23 lung it was 7.62 µM; in the assay with SK-MEL-28 melanoma, 7.69 µM; in the assay on MCF7 breast, 7.9 µM. For the same compound, the TGI in the assay with A498 renal amounted to 35.4 µM; in the assay on SNB-75 CNS, 5.03 µM; in the assay on SR leukemia it was 13.3 µM; with U251 CNS, 14.4 µM; in the assay with NCI-H226 lung, 42.1 µM; in the assay on LOX IMVI melanoma, 8.62 µM. For the same compound, the TGI stood at 99.8 µM in the assay on HCC-2998 colon; 7.24 µM in the assay on HL-60(TB) leukemia; 10.2 µM with SN12C renal; 8.84 µM in the assay on MDA-MB-231 breast; 7.37 µM in the assay with PC-3 prostate; 19 µM with T-47D breast. Further, the TGI was determined as 9.63 µM in the assay on SK-MEL-2 melanoma and 6 µM in the assay on SF-539 CNS.

With `CN(C)CCCCN1c2ccccc2Sc2ccc(C(=O)c3ccccc3)cc21`, the TGI amounted to 6.39 µM with UACC-62 melanoma; 3.88 µM in the assay on HT29 colon; 3.25 µM in the assay on M14 melanoma; 34.2 µM with NCI-H23 lung; 3.72 µM in the assay with SK-MEL-28 melanoma; 3.05 µM in the assay on MCF7 breast. Moreover, the TGI with A498 renal was 32.5 µM; with SNB-75 CNS, 6.92 µM; with SR leukemia it was greater than 100 µM; in the assay on U251 CNS, 7.52 µM; in the assay on NCI-H226 lung it was 22.8 µM; with LOX IMVI melanoma it was 3.44 µM. The TGI with HCC-2998 colon was 3.97 µM; in the assay with HL-60(TB) leukemia, 3.97 µM; with SN12C renal it was 9.84 µM; in the assay on MDA-MB-231 breast, 5.2 µM; in the assay on PC-3 prostate, 6.4 µM; with T-47D breast, 13 µM. Also, the TGI in the assay with SK-MEL-2 melanoma and in the assay on SF-539 CNS was 6.59 µM throughout.
